Test results as given in EP0341019A2, “Polyether antibiotic” (priority 1988, dated 1989).
Converted amounts (≈) assume the structure as drawn.

Columns and labels:
[1] = tested on: Clostridium perfringens 81; assay: microbe, parasite or virus in culture; type: cell-based; details: Clostridium perfringens, 81, 24 h
[2] = tested on: Pseudomonas aeruginosa PS72; type: cell-based; details: PS72, 24 h
[3] = tested on: Eimeria tenella; assay: in vitro tissue-culture anticoccidial screen; type: cell-based; details: in vitro tissue-culture screen against Eimeria tenella
Description: Anticoccidial activity is an important property of the A82810 compounds. For example, in an in vitro tissue-culture screen against Eimeria tenella, A82810 was active at <0.0025 mcg/mL, propionyl-A82810 was active at 0.05 mcg/mL and acetyl-A82810 was active at 0.01 mcg/mL.

[4] = physchem
[5] = tested on: Herpes simplex viruses (HSV II); assay: antiviral tissue-culture test; type: cell-based, Herpes simplex virus
[6] = tested on: Escherichia coli N10; type: cell-based; details: N10, 24 h
[7] = tested on: Bacteroides fragilis 111; type: cell-based; details: Bacteroides fragilis, 111, 24 h
[8] = tested on: Staphylococcus aureus X400; type: cell-based; details: X400, 24 h
[9] = tested on: Propionibacterium acnes 79; type: cell-based; details: Cutibacterium acnes, 79, 24 h
[10] = tested on: Bacteroides melaninogenicus 2736; type: cell-based; details: 2736, 24 h
[11] = tested on: Pseudomonas aeruginosa PS18; type: cell-based; details: PS18, 24 h
[12] = tested on: Bacteroides fragilis 1877; type: cell-based; details: Bacteroides fragilis, 1877, 24 h
[13] = tested on: Friend leukemia virus; assay: antiviral tissue-culture test; type: cell-based
[14] = tested on: Pseudomonas aeruginosa X239; type: cell-based; details: X239, 24 h
[15] = tested on: adult stablefly; assay: insecticide test
Description: (§1) The A82810 compounds are also useful as insecticides. For example, A82810 is active against southern armyworm, spider mite and blowfly larvae at levels as low as 100 ppm and against adult stablefly at levels as low as 50 ppm.

[16] = tested on: spider mite; assay: insecticide test
Description: as §1

[17] = tested on: blowfly larvae; assay: insecticide test
Description: as §1

[18] = tested on: southern armyworm; assay: insecticide test
Description: as §1

[19] = tested on: Escherichia coli EC14; type: cell-based; details: EC14, 24 h
[20] = tested on: Eimeria acervulina Strain 59 And E. tenella Strain 155; assay: anticoccidial feed test in infected chickens, ionophore-sensitive strains; type: in vivo
[21] = tested on: Bacteroides fragilis 1936B; type: cell-based; details: 24 h
[22] = tested on: E. acervulina Strain FS-316; assay: anticoccidial feed test in infected chickens, ionophore-resistant strain; type: in vivo
[23] = tested on: Proteus sp.; type: cell-based; details: 24 h
[24] = tested on: Bacteroides corrodens 1874; type: cell-based; details: Eikenella corrodens, 1874, 24 h
[25] = tested on: Bacteroides melaninogenicus 1856/28; type: cell-based; details: Prevotella intermedia, 1856/28, 24 h
[26] = tested on: Streptococcus pyogenes C203; type: cell-based; details: C203, 24 h
[27] = tested on: Eimeria maxima Strain FS-410; assay: anticoccidial feed test in infected chickens, ionophore-resistant strain; type: in vivo
[28] = tested on: Enterobacter aerogenes C32; type: cell-based; details: Klebsiella aerogenes, C32, 24 h
[29] = tested on: Eimeria acervulina Strain FS-273 and E. tenella Strain FS-456; assay: anticoccidial feed test in infected chickens, ionophore-resistant strains; type: in vivo
[30] = tested on: Eimeria acervulina H & C and Eimeria tenella Wis; assay: anticoccidial feed test in infected chickens, ionophore-sensitive strains; type: in vivo
[31] = tested on: Escherichia coli TEM; type: cell-based; details: 24 h

CC[C@@H](O)[C@]1(C)C[C@H](C)[C@@](O)([C@H]2C[C@H](C)[C@H]([C@]3(C)C[C@@H](O[C@H]4CC[C@H](OC)[C@@H](C)O4)[C@H]([C@]4(C)CC[C@@]5(O[C@H]([C@@H](C)[C@@H](OC)[C@H](C)C(=O)O)[C@H](C)[C@@H](OC)[C@H]5C)O4)O3)O2)O1 [Example A82810]
MIC [1]: 0.5 µg/mL (≈ 0.593 µM)
MIC [2]: 0.25 µg/mL (≈ 0.297 µM)
active at [3]: < 0.0025 µg/mL
pKa [4]: 6.6
active at levels as low as [5]: 1.56 µg/mL
MIC [6]: 1 µg/mL (≈ 1.19 µM)
MIC [7]: 8 µg/mL (≈ 9.49 µM)
MIC [8]: 1 µg/mL (≈ 1.19 µM)
MIC [9]: 2 µg/mL (≈ 2.37 µM)
MIC [10]: 8 µg/mL (≈ 9.49 µM)
MIC [11]: > 128 µg/mL
MIC [12]: 8 µg/mL (≈ 9.49 µM)
active at levels as low as [13]: 0.04 µg/mL
MIC [14]: 0.25 µg/mL (≈ 0.297 µM)
active at levels as low as [15]: 50 ppm
active at levels as low as [16]: 100 ppm
active at levels as low as [17]: 100 ppm
active at levels as low as [18]: 100 ppm
MIC [19]: 8 µg/mL (≈ 9.49 µM)
TOTAL LESION SCORE ([20]; 0.5 ppm): 12.1
WEIGHT GAIN, PERCENT OF CONTROL ([20]; 0.5 ppm): 60% OF CONTROL
TOTAL LESION SCORE ([20]; 1 ppm): 10.7
WEIGHT GAIN, PERCENT OF CONTROL ([20]; 1 ppm): 81% OF CONTROL
AVERAGE CECAL LESION SCORES ([20]; 1.25 ppm): 3.2
AVERAGE INTESTINAL LESION SCORES ([20]; 1.25 ppm): 6.0
WEIGHT GAIN, PERCENT OF CONTROL ([20]; 1.25 ppm): 87% OF CONTROL
AVERAGE CECAL LESION SCORES ([20]; 1.5 ppm): 2.6
AVERAGE INTESTINAL LESION SCORES ([20]; 1.5 ppm): 3.6
AVERAGE CECAL LESION SCORES ([20]; 1.75 ppm): 2.0
AVERAGE INTESTINAL LESION SCORES ([20]; 1.75 ppm): 2.3
WEIGHT GAIN, PERCENT OF CONTROL ([20]; 1.75 ppm): 82% OF CONTROL
MIC [21]: 8 µg/mL (≈ 9.49 µM)
AVERAGE INTESTINAL LESION SCORES ([22]; 0.5 ppm): 7.3
WEIGHT GAIN, PERCENT OF CONTROL ([22]; 0.5 ppm): 72% OF CONTROL
AVERAGE INTESTINAL LESION SCORES ([22]; 1 ppm): 7.8
WEIGHT GAIN, PERCENT OF CONTROL ([22]; 1 ppm): 73% OF CONTROL
AVERAGE INTESTINAL LESION SCORES ([22]; 1.5 ppm): 7.9
WEIGHT GAIN, PERCENT OF CONTROL ([22]; 1.5 ppm): 73% OF CONTROL
AVERAGE INTESTINAL LESION SCORES ([22]; 2 ppm): 8.8
WEIGHT GAIN, PERCENT OF CONTROL ([22]; 2 ppm): 76% OF CONTROL
MIC [23]: > 128 µg/mL
MIC [24]: 8 µg/mL (≈ 9.49 µM)
MIC [25]: 8 µg/mL (≈ 9.49 µM)
MIC [26]: 1 µg/mL (≈ 1.19 µM)
AVERAGE INTESTINAL LESION SCORES ([27]; 1.25 ppm): 4.0
WEIGHT GAIN, PERCENT OF CONTROL ([27]; 1.25 ppm): 93% OF CONTROL
AVERAGE INTESTINAL LESION SCORES ([27]; 1.5 ppm): 3.3
INTESTINAL LESION SCORE ([27]; 1.5 ppm): 4.0
AVERAGE INTESTINAL LESION SCORES ([27]; 1.75 ppm): 3.8
WEIGHT GAIN, PERCENT OF CONTROL ([27]; 1.75 ppm): 91% OF CONTROL
INTESTINAL LESION SCORE ([27]; 2 ppm): 4.0
LESION SCORE ([27]; 2 ppm): 2.3
PERCENT REDUCTION IN OOCYST PRODUCTION ([27]; 2 ppm): 18%
AVERAGE INTESTINAL LESION SCORES ([27]; 2.5 ppm): 3.8
WEIGHT GAIN, PERCENT OF CONTROL ([27]; 2.5 ppm): 90% OF CONTROL
AVERAGE INTESTINAL LESION SCORES ([27]; 3 ppm): 3.1
WEIGHT GAIN, PERCENT OF CONTROL ([27]; 3 ppm): 88% OF CONTROL
AVERAGE INTESTINAL LESION SCORES ([27]; 3.5 ppm): 3.5
WEIGHT GAIN, PERCENT OF CONTROL ([27]; 3.5 ppm): 88% OF CONTROL
AVERAGE INTESTINAL LESION SCORES ([27]; 5 ppm): 4.0
WEIGHT GAIN, PERCENT OF CONTROL ([27]; 5 ppm): 74% OF CONTROL
AVERAGE INTESTINAL LESION SCORES ([27]; 6 ppm): 4.0
LESION SCORE ([27]; 6 ppm): 2.7
PERCENT REDUCTION IN OOCYST PRODUCTION ([27]; 6 ppm): 18%
LESION SCORE ([27]; 10 ppm): 2.4
PERCENT REDUCTION IN OOCYST PRODUCTION ([27]; 10 ppm): 36%
WEIGHT GAIN, PERCENT OF CONTROL ([27]; 10 ppm): 88% OF CONTROL
MIC [28]: 8 µg/mL (≈ 9.49 µM)
LESION SCORE ([29]; 2 ppm): 7.2
PERCENT REDUCTION IN OOCYST PRODUCTION ([29]; 2 ppm): 22%
WEIGHT GAIN, PERCENT OF CONTROL ([29]; 2 ppm): 68% OF CONTROL
LESION SCORE ([29]; 6 ppm): 3.7
PERCENT REDUCTION IN OOCYST PRODUCTION ([29]; 6 ppm): 65%
WEIGHT GAIN, PERCENT OF CONTROL ([29]; 6 ppm): 89% OF CONTROL
LESION SCORE ([29]; 10 ppm): 2.0
PERCENT REDUCTION IN OOCYST PRODUCTION ([29]; 10 ppm): 83%
WEIGHT GAIN, PERCENT OF CONTROL ([29]; 10 ppm): 86% OF CONTROL
AVERAGE INTESTINAL LESION SCORES ([30]; 2 ppm): 1.2
WEIGHT GAIN, PERCENT OF CONTROL ([30]; 2 ppm): 98% OF CONTROL
AVERAGE INTESTINAL LESION SCORES ([30]; 6 ppm): 0.4
WEIGHT GAIN, PERCENT OF CONTROL ([30]; 6 ppm): 91% OF CONTROL
AVERAGE INTESTINAL LESION SCORES ([30]; 10 ppm): 0.3
WEIGHT GAIN, PERCENT OF CONTROL ([30]; 10 ppm): 80% OF CONTROL
MIC [31]: > 128 µg/mL
